From patent publication US20220016101A1 (ACADIA Pharmaceuticals Inc., priority 2018, published 2022)

Test system: patients with MDD and an inadequate response to an SSRI or SNRI
Test: Massachusetts General Hospital Sexual Functioning Index (MGH-SFI), Study ACP-103-042
Assay type: in vivo, human
Conditions: for MGH-SFI 05: Overall Sexual Satisfaction, Effect Size (Cohen's d) / MGH-SFI 06: Overall Improvement Since Last Medication Change, Effect Size (Cohen's d) / MGH-SFI 04: (Men) Ability to Get and Maintain an Erection, Effect Size (Cohen's d) / MGH-SFI 02: Ability to Get Sexually Aroused or Excited, Effect Size (Cohen's d) / MGH-SFI 03: Ability to Achieve Orgasm, Effect Size (Cohen's d) / MGH-SFI 01: Interest in Sex, Effect Size (Cohen's d): PIM 34 mg vs placebo; for MGH-SFI 04: (Men) Ability to Get and Maintain an Erection, Change from Baseline to Week 5 Mean (SE) / MGH-SFI 04: (Men) Ability to Get and Maintain an Erection, Change from Baseline to Week 5 Median / MGH-SFI 04: (Men) Ability to Get and Maintain an Erection, Week 5 Mean (SE) / MGH-SFI 04: (Men) Ability to Get and Maintain an Erection, Week 5 Median / MGH-SFI 05: Overall Sexual Satisfaction, Change from Baseline to Week 5 Mean (SE) / MGH-SFI 05: Overall Sexual Satisfaction, Change from Baseline to Week 5 Median / MGH-SFI 05: Overall Sexual Satisfaction, Week 5 Mean (SE) / MGH-SFI 05: Overall Sexual Satisfaction, Week 5 Median / MGH-SFI 06: Overall Improvement Since Last Medication Change, Week 5 Mean (SE) / MGH-SFI 06: Overall Improvement Since Last Medication Change, Week 5 Median / MGH-SFI 02: Ability to Get Sexually Aroused or Excited, Change from Baseline to Week 5 Mean (SE) / MGH-SFI 02: Ability to Get Sexually Aroused or Excited, Change from Baseline to Week 5 Median / MGH-SFI 02: Ability to Get Sexually Aroused or Excited, Week 5 Mean (SE) / MGH-SFI 02: Ability to Get Sexually Aroused or Excited, Week 5 Median / MGH-SFI 03: Ability to Achieve Orgasm, Change from Baseline to Week 5 Mean (SE) / MGH-SFI 03: Ability to Achieve Orgasm, Change from Baseline to Week 5 Median / MGH-SFI 03: Ability to Achieve Orgasm, Week 5 Mean (SE) / MGH-SFI 03: Ability to Achieve Orgasm, Week 5 Median / MGH-SFI 01: Interest in Sex, Change from Baseline to Week 5 Mean (SE) / MGH-SFI 01: Interest in Sex, Change from Baseline to Week 5 Median / MGH-SFI 01: Interest in Sex, Week 5 Mean (SE) / MGH-SFI 01: Interest in Sex, Week 5 Median: PIM 34 mg; for MGH-SFI 01: Interest in Sex, Change from Baseline to Week 5 Mean (SE) / MGH-SFI 01: Interest in Sex, Change from Baseline to Week 5 Median / MGH-SFI 01: Interest in Sex, Week 5 Mean (SE) / MGH-SFI 01: Interest in Sex, Week 5 Median / MGH-SFI 01: Interest in Sex, Effect Size (Cohen's d): subgroup >50 years
Text: “Massachusetts General Hospital Sexual Functioning Index (MGH-SFI)” is described, for instance, in Labbate and Lare, 2001, Psychother Psychosom. 70(4):221-225. This is a patient facing questionnaire that quantifies sexual dysfunction into 5 functional domains (“interest in sex,” “sexual arousal,” “ability to achieve orgasm,” “ability to maintain erection” (males only), and “sexual satisfaction”). Patients rate each item using a 6-point scale ranging from 1 (good function) to 6 (poor function). High scores indicate poor sexual functioning. […] The determination of the subject's status and eligibility for randomization in Stage 2 was made in a double-blind manner. […] Sexual functioning was assessed using the Massachusetts General Hospital Sexual Functioning Index or MGH-SFI (Labbate and Lare, 2001, Psychother Psychosom. 70(4):221-225). This is a patient facing questionnaire that quantifies sexual dysfunction into 5 functional domains (“interest in sex,” “sexual arousal,” “ability to achieve orgasm,” “ability to maintain erection” [malesonly], and “sexual satisfaction”). Patients rate each item using a 6-point scale ranging from 1 (good function) to 6 (poor function). The time frame for this scale is the past month. This scale was administered at baseline and Week 5 in both stages of the study. High scores indicate poor sexual functioning. In ACP-103-042 the mean scores for MGH-SFI at Baseline was calculated over all 5 domains for males and the 4 domains for females. For MGH-SFI (follow-up version) at Study Weeks 5 and 10, the mean was calculated in the same way as MGH-SFI at Baseline. […] Tables 10-27 summarize the detailed data of MGH-SFI individual items of the overall study group (Tables 10-15), the subgroup of age of <=50 (Tables 16-21) and the subgroup of age of >50 (Table 21-26). In Tables 9-26, ANCOVA=analysis of covariance; OC=observed cases; LSM=least squares mean; CI=confidence interval; SD=standard deviation; SE=standard error. Stage 1: Baseline=Study Week 0, Week 5=Study Week 5; Stage 2: Baseline=Study Week 5, Week 5=Study Weeks 10. LSM from the stage-specific ANCOVA analysis with the change from baseline as the outcome, treatment group as a factor, and the corresponding Baseline value as a covariate. 2-sided p-value for treatment difference from the stage-specific ANCOVA analysis. An treatment effect size (Cohen's d) is calculated using the formula: Effect Size=Least Square mean difference between PIM and PBO/SD. The corresponding 95% confidence interval for an effect size is calculated based on the theoretical probability distribution of the effect size. […] Tables 10-15 and 28-38 summarize the detailed data of MGH-SFI individual items of the overall study group (Tables 10-15), the female subgroup (Tables 33-37) and the male subgroup (Table 38-43). An treatment effect size (Cohen's d) is calculated using the formula: Effect Size=Least Square mean difference between PIM and PBO/SD. The corresponding 95% confidence interval for an effect size is calculated based on the theoretical probability distribution of the effect size. In Tables 10-15 and 28-38, ANCOVA=analysis of covariance; OC=observed cases; LSM=least squares mean; CI=confidence interval; SD=standard deviation; SE=standard error. Stage 1: Baseline=Study Week 0, Week 5=Study Week 5; Stage 2: Baseline=Study Week 5, Week 5=Study Weeks 10. LSM from the stage-specific ANCOVA analysis with the change from baseline as the outcome, treatment group as a factor, and the corresponding Baseline value as a covariate. 2-sided p-value for treatment difference from the stage-specific ANCOVA analysis. An treatment effect size (Cohen's d) is calculated using the formula: Effect Size=Least Square mean difference between PIM and PBO/SD. The corresponding 95% confidence interval for an effect size is calculated based on the theoretical probability distribution of the effect size.

[1] = subgroup <=50 years old, Stage 1
[2] = subgroup <=50 years old, Stage 2
[3] = subgroup >50 years old, Stage 1
[4] = subgroup >50 years old, Stage 2

## CC(C)COc1ccc(CNC(=O)N(Cc2ccc(F)cc2)C2CCN(C)CC2)cc1 [pimavanserin, N-(4-Fluorophenylmethyl)-N-(1-methylpiperidin-4-yl)-N′-(4-(2-methylpropyloxy)phenylmethyl)carbamide]
[1]
  MGH-SFI 05: Overall Sexual Satisfaction, Effect Size (Cohen's d): 0.304
  MGH-SFI 06: Overall Improvement Since Last Medication Change, Effect Size (Cohen's d): 0.622
[2]
  MGH-SFI 04: (Men) Ability to Get and Maintain an Erection, Change from Baseline to Week 5 Mean (SE): −0.3 (0.48)
  MGH-SFI 04: (Men) Ability to Get and Maintain an Erection, Change from Baseline to Week 5 Median: −0.5
  MGH-SFI 04: (Men) Ability to Get and Maintain an Erection, Week 5 Mean (SE): 3.5 (0.50)
  MGH-SFI 04: (Men) Ability to Get and Maintain an Erection, Week 5 Median: 4.0
  MGH-SFI 05: Overall Sexual Satisfaction, Change from Baseline to Week 5 Mean (SE): −0.6 (0.34)
  MGH-SFI 05: Overall Sexual Satisfaction, Change from Baseline to Week 5 Median: −1.0
  MGH-SFI 05: Overall Sexual Satisfaction, Week 5 Mean (SE): 4.0 (0.39)
  MGH-SFI 05: Overall Sexual Satisfaction, Week 5 Median: 4.0
  MGH-SFI 06: Overall Improvement Since Last Medication Change, Week 5 Mean (SE): 3.8 (0.33)
  MGH-SFI 06: Overall Improvement Since Last Medication Change, Week 5 Median: 4.0
  MGH-SFI 04: (Men) Ability to Get and Maintain an Erection, Effect Size (Cohen's d): −0.526
  MGH-SFI 05: Overall Sexual Satisfaction, Effect Size (Cohen's d): 0.405
  MGH-SFI 06: Overall Improvement Since Last Medication Change, Effect Size (Cohen's d): 0.043
[3]
  MGH-SFI 02: Ability to Get Sexually Aroused or Excited, Change from Baseline to Week 5 Mean (SE): −0.9 (0.21)
  MGH-SFI 02: Ability to Get Sexually Aroused or Excited, Change from Baseline to Week 5 Median: −1.0
  MGH-SFI 02: Ability to Get Sexually Aroused or Excited, Week 5 Mean (SE): 3.9 (0.32)
  MGH-SFI 02: Ability to Get Sexually Aroused or Excited, Week 5 Median: 4.0
  MGH-SFI 03: Ability to Achieve Orgasm, Change from Baseline to Week 5 Mean (SE): −1.2 (0.33)
  MGH-SFI 03: Ability to Achieve Orgasm, Change from Baseline to Week 5 Median: 0.0
  MGH-SFI 03: Ability to Achieve Orgasm, Week 5 Mean (SE): 3.8 (0.33)
  MGH-SFI 03: Ability to Achieve Orgasm, Week 5 Median: 4.0
  MGH-SFI 04: (Men) Ability to Get and Maintain an Erection, Change from Baseline to Week 5 Mean (SE): 0.8 (0.48)
  MGH-SFI 04: (Men) Ability to Get and Maintain an Erection, Change from Baseline to Week 5 Median: 0.5
  MGH-SFI 04: (Men) Ability to Get and Maintain an Erection, Week 5 Mean (SE): 5.0 (0.71)
  MGH-SFI 04: (Men) Ability to Get and Maintain an Erection, Week 5 Median: 5.5
  MGH-SFI 05: Overall Sexual Satisfaction, Change from Baseline to Week 5 Mean (SE): −1.1 (0.34)
  MGH-SFI 05: Overall Sexual Satisfaction, Change from Baseline to Week 5 Median: 0.0
  MGH-SFI 05: Overall Sexual Satisfaction, Week 5 Mean (SE): 4.1 (0.34)
  MGH-SFI 05: Overall Sexual Satisfaction, Week 5 Median: 4.0
  MGH-SFI 06: Overall Improvement Since Last Medication Change, Week 5 Mean (SE): 3.3 (0.24)
  MGH-SFI 06: Overall Improvement Since Last Medication Change, Week 5 Median: 4.0
  MGH-SFI 02: Ability to Get Sexually Aroused or Excited, Effect Size (Cohen's d): 0.660
  MGH-SFI 03: Ability to Achieve Orgasm, Effect Size (Cohen's d): 0.869
  MGH-SFI 04: (Men) Ability to Get and Maintain an Erection, Effect Size (Cohen's d): −0.568
  MGH-SFI 05: Overall Sexual Satisfaction, Effect Size (Cohen's d): 0.757
  MGH-SFI 06: Overall Improvement Since Last Medication Change, Effect Size (Cohen's d): 0.531
[4]
  MGH-SFI 02: Ability to Get Sexually Aroused or Excited, Change from Baseline to Week 5 Mean (SE): −0.4 (0.21)
  MGH-SFI 02: Ability to Get Sexually Aroused or Excited, Change from Baseline to Week 5 Median: 0.0
  MGH-SFI 02: Ability to Get Sexually Aroused or Excited, Week 5 Mean (SE): 4.4 (0.46)
  MGH-SFI 02: Ability to Get Sexually Aroused or Excited, Week 5 Median: 5.0
  MGH-SFI 03: Ability to Achieve Orgasm, Change from Baseline to Week 5 Mean (SE): −0.5 (0.27)
  MGH-SFI 03: Ability to Achieve Orgasm, Change from Baseline to Week 5 Median: 0.0
  MGH-SFI 03: Ability to Achieve Orgasm, Week 5 Mean (SE): 4.5 (0.54)
  MGH-SFI 03: Ability to Achieve Orgasm, Week 5 Median: 5.0
  MGH-SFI 04: (Men) Ability to Get and Maintain an Erection, Change from Baseline to Week 5 Mean (SE): −1.6 (0.51)
  MGH-SFI 04: (Men) Ability to Get and Maintain an Erection, Change from Baseline to Week 5 Median: −2.0
  MGH-SFI 04: (Men) Ability to Get and Maintain an Erection, Week 5 Mean (SE): 2.8 (0.92)
  MGH-SFI 04: (Men) Ability to Get and Maintain an Erection, Week 5 Median: 2.0
  MGH-SFI 05: Overall Sexual Satisfaction, Change from Baseline to Week 5 Mean (SE): −0.8 (0.39)
  MGH-SFI 05: Overall Sexual Satisfaction, Change from Baseline to Week 5 Median: 0.0
  MGH-SFI 05: Overall Sexual Satisfaction, Week 5 Mean (SE): 4.2 (0.58)
  MGH-SFI 05: Overall Sexual Satisfaction, Week 5 Median: 5.0
  MGH-SFI 06: Overall Improvement Since Last Medication Change, Week 5 Mean (SE): 3.5 (0.40)
  MGH-SFI 06: Overall Improvement Since Last Medication Change, Week 5 Median: 4.0
  MGH-SFI 02: Ability to Get Sexually Aroused or Excited, Effect Size (Cohen's d): −0.075
  MGH-SFI 03: Ability to Achieve Orgasm, Effect Size (Cohen's d): 0.169
  MGH-SFI 04: (Men) Ability to Get and Maintain an Erection, Effect Size (Cohen's d): 1.174
  MGH-SFI 05: Overall Sexual Satisfaction, Effect Size (Cohen's d): 0.555
  MGH-SFI 06: Overall Improvement Since Last Medication Change, Effect Size (Cohen's d): 0.406
Stage 1
  MGH-SFI 01: Interest in Sex, Change from Baseline to Week 5 Mean (SE): −1.0 (0.24)
  MGH-SFI 01: Interest in Sex, Change from Baseline to Week 5 Median: −1.0
  MGH-SFI 01: Interest in Sex, Week 5 Mean (SE): 3.9 (0.32)
  MGH-SFI 01: Interest in Sex, Week 5 Median: 4.0
  MGH-SFI 01: Interest in Sex, Effect Size (Cohen's d): 0.649
Stage 2
  MGH-SFI 01: Interest in Sex, Change from Baseline to Week 5 Mean (SE): −0.6 (0.24)
  MGH-SFI 01: Interest in Sex, Change from Baseline to Week 5 Median: 0.0
  MGH-SFI 01: Interest in Sex, Week 5 Mean (SE): 4.4 (0.45)
  MGH-SFI 01: Interest in Sex, Week 5 Median: 5.0
  MGH-SFI 01: Interest in Sex, Effect Size (Cohen's d): 0.468
